Results published in article PMC3716995, “A phase I study of ridaforolimus in adult Chinese patients with advanced solid tumors” (Journal of Hematology & Oncology, 2013).
Several values for one entry are separate records, joined by “and”; a condition that tells them apart may be missing. Equal entries are not always repeated. Where two headings read alike, the source gives them in different places. Marks after values point to notes of the source that are not given here.

Key:
[1] = tested on: advanced sarcoma; design: method as in earlier work; settings: maintenance therapy, cited from earlier work
[2] = design: method as in PMID 22143378; settings: Japanese patients, cited from earlier work
[3] = tested on: treatment-refractory advanced or relapsed solid tumors; experiment: Tumor response (RECIST 1.1) in Chinese patients; type: in vivo
Description: (§1) The patients continued to receive 40 mg of ridaforolimus for five consecutive days followed by two day's off until disease progression or intolerability. Averse events were monitored every four weeks and AEs were graded according to the Common Terminology Criteria for Adverse Events version 4.0. We also monitored patients’ vital signs and conducted laboratory and physical examinations every four weeks. Radiographic studies for disease assessment were conducted at baseline and again after every two treatment cycles (thus, every eight weeks). Tumor responses were assessed according to the Response Evaluation Criteria for Solid Tumors 1.1 guidelines. We conducted a full safety assessment in all patients four weeks after the administration of the last treatment dose.

[4] = design: method as in internal PK data; settings: Caucasian patients, ref internal PK data, cited from earlier work
[5] = design: method as in PMID 18202410, PMID 19228743, PMID 22143378; settings: Caucasians and Japanese patients, cited from earlier work
[6] = Safety and tolerability (adverse events, CTCAE v4.0) of oral ridaforolimus 40 mg in Chinese patients; type: in vivo
Description: (§2) The eligible patients were given the following treatment regimen: a single oral dose of 40 mg of ridaforolimus on Day 1; and then, the treatment started from Day 8 with an oral dose of 40 mg of ridaforolimus for five consecutive days (on Day 8 through Day 12) followed by two day's off (Day 13 and 14). The treatment repeated every 7 days. Four treatment weeks was considered one treatment cycle. Sample blood for PK analysis were collected at the following times: on Day 1 prior to drug administration and for 168 h post-dose (at 1, 2, 3, 4, 6, 8, 24, 72, 96, and 168 h post-treatment); on Day 8 and Day 15 prior to drug administration; on Day 19 prior to drug administration and for 24 h post-dose (at 1, 2, 3, 4, 6, 8 and 24 h post-treatment). We monitored patients’ vital signs and conducted laboratory and physical examinations on trial Day 1, 8 and 19.
as §1

[7] = Whole blood pharmacokinetics of oral ridaforolimus 40 mg in Chinese patients (HPLC-MS/MS, WinNonlin); type: in vivo; settings: for AUC(0-t): read-out: AUC0-24; for concentration at 24 h: read-out: C24hr
Description: as §2
Ridaforolimus concentration in both whole blood and plasma was analyzed using high-performance liquid chromatography with tandem mass spectrometric detection set at a lower limit of quantification of 0.2 ng/mL (Wuxi AppTec, Shanghai, China). Pharmacokinetic analyses were performed with WinNonlin, version 5.2.1 (Pharsight Corp., St. Louis, MO, USA). AUC0-∞, AUC0-24hr, C24hr, and Cmax were determined for each patient on Day 1 and on Day 19, if applicable, and the geometric means as well as the 95% CI were calculated. The accumulation of ridaforolimus was assessed for Cmax and for AUC0-24hr (geometric mean ratio Day 19 / Day 1 and 90% CI).

[8] = single dose, geometric mean (95% CI)
[9] = Grade 3 non-serious adverse event
[10] = Grade 4 non-serious adverse event
[11] = N = 15, not considered drug-related by the investigator
[12] = non-serious adverse event, all grades, N = 15
[13] = Day 1, single oral dose 40 mg, whole blood, median
[14] = human, whole blood, po, 40 mg, Day 1, single oral dose 40 mg, whole blood, geometric mean

Compound: CO[C@H]1C[C@@H]2CC[C@@H](C)[C@@](O)(O2)C(=O)C(=O)N2CCCC[C@H]2C(=O)O[C@H]([C@H](C)C[C@@H]2CC[C@@H](OP(C)(C)=O)[C@H](OC)C2)CC(=O)[C@H](C)/C=C(\C)[C@@H](O)[C@@H](OC)C(=O)[C@H](C)C[C@H](C)/C=C/C=C/C=C/1C [ridaforolimus, Ridaforolimus]
- Median PFS ([1]; vs 14.6 weeks for placebo, P = 0.0001): 17.7 weeks
- Median overall survival at data cut-off (386 deaths) ([1]; vs 83.4 weeks for placebo, P = 0.23): 93.3 weeks
- AUC0-24 ([2]; multiple dose): 2,120 (1,320, 3,410) ng.hr/ml
- Cmax ([2]; multiple dose): 188 (116, 306) ng/ml
- Tmax ([2]; multiple dose): 4.04 (4.00, 8.15) hr
- AUC0-24 [2, 8]: 1,470 (914, 2,360) ng.hr/ml
- Cmax [2, 8]: 187 (115, 304) ng/ml
- t1/2 ([2]; single dose, harmonic mean (jack-knife SD)): 55.8 (50.95, 60.65)^c hr
- Tmax ([2]; single dose, median (min, max)): 4.00 (4.00, 8.00) hr
- Accumulation ratio AUC0-24 ([2]; geometric mean ratio (90% CI)): 1.44 (1.05, 1.99)
- Accumulation ratio Cmax ([2]; geometric mean ratio (90% CI)): 1.01 (0.674, 1.50)
- Patients who discontinued treatment because of progressive disease ([3]; N = 15): Eight
- Partial or complete responses ([3]; RECIST 1.1): absence of partial or complete responses
- AUC0-24 ([4]; multiple dose): 1882(1630, 2180) ng.hr/ml
- Cmax ([4]; multiple dose): 160(136, 188) ng/ml
- AUC0-24 [4, 8]: 992(801, 1230) ng.hr/ml
- Cmax [4, 8]: 112(84.6, 148) ng/ml
- t1/2 ([4]; single dose, harmonic mean (pseudo SD)): 42.0(17.7)^d hr
- Tmax ([4]; single dose, median (min, max)): 2.79(1.42, 9.78) hr
- Accumulation ratio AUC0-24 ([4]; geometric mean ratio (90% CI)): 1.90(1.63, 2.21)
- Accumulation ratio Cmax ([4]; geometric mean ratio (90% CI)): 1.43(1.22, 1.68)
- Tolerability ([5]; oral 40mg per day for five consecutive days followed by two day's off): well tolerated
- Most important dose limiting toxicity ([5]; oral ridaforolimus): stomatitis
- Anaemia Grade 3, number of patients [6, 9]: 2/15
- Anaemia Grade 3, percentage of patients [6, 9]: 13.3%
- Constipation Grade 3, number of patients [6, 9]: 1/15
- Constipation Grade 3, percentage of patients [6, 9]: 6.7%
- Fatigue Grade 3, number of patients [6, 9]: 2/15
- Fatigue Grade 3, percentage of patients [6, 9]: 13.3%
- Gamma-glutamyltransferase increase Grade 3, number of patients [6, 9]: 1/15
- Gamma-glutamyltransferase increase Grade 3, percentage of patients [6, 9]: 6.7%
- Platelet count decrease Grade 3, number of patients [6, 9]: 1/15
- Platelet count decrease Grade 3, percentage of patients [6, 9]: 6.7%
- Proteinuria Grade 3, number of patients [6, 9]: 1/15
- Proteinuria Grade 3, percentage of patients [6, 9]: 6.7%
- Stomatitis Grade 3, number of patients [6, 9]: 2/15
- Stomatitis Grade 3, percentage of patients [6, 9]: 13.3%
- Anaemia Grade 4, number of patients [6, 10]: 1/15
- Anaemia Grade 4, percentage of patients [6, 10]: 6.7%
- Platelet count decrease Grade 4, number of patients [6, 10]: 1/15
- Platelet count decrease Grade 4, percentage of patients [6, 10]: 6.7%
- Patients who discontinued as a result of drug-related fatigue ([6]; N = 15): one
- Patients who discontinued as a result of drug-related interstitial lung disease ([6]; N = 15): three
- Patients who discontinued as a result of drug-related stomatitis ([6]; N = 15): one
- Patients who discontinued due to drug-related AEs ([6]; N = 15): five
- Patients who discontinued treatment as a result of AEs ([6]; N = 15): six
- Patients who developed serious AEs, number [6, 11]: Four
- Patients who developed serious AEs, percentage [6, 11]: 26.7%
- Patients who developed Grade 2 interstitial pneumonitis ([6]; all recovered after interruption and glucocorticoids): Three
- Non-serious AEs considered Grade 3 ([6]; fifteen patients): 11
- Non-serious AEs considered Grade 4 ([6]; fifteen patients): 2
- Non-serious AEs deemed by the investigator as drug related ([6]; fifteen patients): 111
- Total number of non-serious AEs reported ([6]; fifteen patients): 135
- Grade 3/4 drug-related AEs ([6]; human, in vivo): anemia, stomatitis, fatigue, thrombocytopenia, constipation, gamma glutamyltransferase increase, and proteinuria
- Most common drug-related adverse events (occurred in ≥40% of patients) ([6]; human, in vivo): stomatitis, proteinuria, leukopenia, hyperglycemia, and pyrexia
- ALT increase, number of patients [6, 12]: 3
- ALT increase, percentage of patients [6, 12]: 20%
- Anemia, number of patients [6, 12]: 5
- Anemia, percentage of patients [6, 12]: 33.3%
- Blood alkaline phosphatase increased, number of patients [6, 12]: 4
- Blood alkaline phosphatase increased, percentage of patients [6, 12]: 26.7%
- Blood cholesterol increased, number of patients [6, 12]: 5
- Blood cholesterol increased, percentage of patients [6, 12]: 33.3%
- Fatigue, number of patients [6, 12]: 4
- Fatigue, percentage of patients [6, 12]: 26.7%
- Gamma-glutamyltransferase increased, number of patients [6, 12]: 6
- Gamma-glutamyltransferase increased, percentage of patients [6, 12]: 40%
- Hyperglycaemia, number of patients [6, 12]: 7
- Hyperglycaemia, percentage of patients [6, 12]: 46.7%
- Hypoalbuminaemia, number of patients [6, 12]: 5
- Hypoalbuminaemia, percentage of patients [6, 12]: 33.3%
- Interstitial lung disease, number of patients [6, 12]: 3
- Interstitial lung disease, percentage of patients [6, 12]: 20%
- Platelet count decrease, number of patients [6, 12]: 5
- Platelet count decrease, percentage of patients [6, 12]: 33.3%
- Proteinuria, number of patients [6, 12]: 11
- Proteinuria, percentage of patients [6, 12]: 73.3%
- Pyrexia, number of patients [6, 12]: 6
- Pyrexia, percentage of patients [6, 12]: 40%
- Stomatitis, number of patients [6, 12]: 12
- Stomatitis, percentage of patients [6, 12]: 80%
- White blood cell count decrease, number of patients [6, 12]: 8
- White blood cell count decrease, percentage of patients [6, 12]: 53.3%
- Tolerability ([6]; once a day oral dose of 40 mg, Chinese patients): generally well tolerated
- Changes from baseline over time in serum cholesterol, serum glucose, serum triglycerides ([6]; summary statistics, an elevation from baseline was observed): no clinically significant elevations
- Linearity of blood PKs ([7]; AUC0-24hr at steady state lower than AUC0-∞ after single dose): non-linear
- Apparent t1/2 (elimination half-life) ([7]; Day 1, single oral dose 40 mg, whole blood, harmonic mean): 52.9 h
- Tlag (absorption lag time) [7, 13]: 2 h and 2.00 h
- Tmax [7, 13]: 4.03 h
- Absorption after oral administration ([7]; human, in vivo, po): slowly absorbed
- AUC(0-t) [7, 14]: 1850 ng·h/mL
- concentration at 24 h [7, 14]: 34.8 ng/mL
- Cmax ([7]; human, whole blood, po, 40 mg, Day 1, single oral dose 40 mg, whole blood, geometric mean, read-out: Cmax): 210 ng/mL
- half-life ([7]; human, whole blood, po, 40 mg, Day 1, single oral dose 40 mg, whole blood, harmonic mean, read-out: Apparent t1/2 (elimination half-life) (converted)): 53 h
- Tmax ([7]; human, whole blood, po, 40 mg, Day 1, single oral dose 40 mg, whole blood, median, read-out: Tmax): 4 h
- Cmax ([7]; human, whole blood, po, 40 mg, Day 1, single oral dose 40 mg, read-out: Cmax, median value): 192 ng/mL
- AUC(0-t) ([7]; human, whole blood, po, 40 mg, Day 19, multiple once daily oral 40 mg (steady state), whole blood, geometric mean): 2010 ng·h/mL
- concentration at 24 h ([7]; human, whole blood, po, 40 mg, Day 19, multiple once daily oral 40 mg, whole blood, geometric mean): 49.7 ng/mL
- Cmax ([7]; human, whole blood, po, 40 mg, Day 19, multiple once daily oral 40 mg, whole blood, geometric mean, read-out: Cmax): 167 ng/mL
- Tmax ([7]; human, whole blood, po, 40 mg, Day 19, multiple once daily oral 40 mg, whole blood, median, read-out: Tmax): 4 h
- Cmax ([7]; human, whole blood, po, 40 mg, Day 19, multiple once daily oral 40 mg, read-out: Cmax, median value): 203 ng/mL
- AUC(0-inf) ([7]; human, Day 1, single oral dose 40 mg, whole blood, geometric mean): 3650 ng·h/mL
